From US20220354807A1, “USE OF VALERIC ACID DERIVATIVE IN TREATMENT OF DOWN'S SYNDROME” (XIAMEN UNIVERSITY, priority 2019, published 2022)

Tests used:
[1] = cited from earlier work
Down's model mice Dp16 [2] = test: Iba1 immunofluorescence of hippocampus (microgliosis), Dp16; assay type: in vivo; conditions: 30 mg/(kg body weight/day) intragastric, 21 days
Description: (§1) (A) A representative map of immunofluorescence labeled microglia marker Iba1 in the DG region of mice hippocampus, and the scale is 100 m. (B) Statistical results of Iba1 positive cells in mice hippocampus. Data represents the mean±standard error (SEM) and is statistically analyzed using One-way ANOVA, with 8 mice in each group. **** represents p<0.0001.
(§2) The microglia marker Iba1 and nuclear dye DAPI were respectively labeled by immunofluorescence staining, and then the images were collected by laser confocal fluorescence microscopy.

Down's model mice Ts65Dn [3] = test: Iba1 immunofluorescence of hippocampus (microgliosis), Ts65Dn; assay type: in vivo; conditions: 50 mg/(kg body weight/day) i.p., 21 days
Description: as §1, with “75” for “100”, “4” for “8”, “**” for “****”, “p<0.01 and *** represents p<0.001.” for “p<0.0001.”
as §2

[4] = system: primary microglia of Dp16 mice; test: Phagocytosis of fluorescent spheres by primary microglia; assay type: cell-based; conditions: 0.6 mM, fluorescent spheres added at 45th hour, staining at 48th hour
Description: (§3) (A) Representative images of immunofluorescence labeled microglia marker Iba1, nuclear dye DAPI and fluorescent spheres, and the scale is 10 m. (B) Statistics of fluorescence intensity of fluorescent spheres in each Iba1-positive cell. Data represents the mean±standard error (SEM) and is statistically analyzed using One-way ANOVA. The ns represents no significant difference, i.e., p>0.05, ** represents p<0.01, **** represents p<0.0001.
(§4) Newborn wild-type (WT) mice and Dp16 Down's model mice were placed on ice for 5 min, immersed in pre-cooled 75% alcohol for 10 s, decapitated and stripped of the skull, and the whole brain was removed and placed in pre-cooled HBSS. Under a stereoscope, the vascular membrane of brain tissue was stripped and cut into pieces with tweezers, repeatedly blown and beaten evenly with a 5 ml pipette tip, resuspended in precooled HBSS, and screened with a 100-mesh cell sieve to remove cell debris. […] The cells were resuspended and counted. […] Fluorescent spheres (10000×, Fluoresbrite® microsphere) were added at the 45th hour, and immunofluorescence staining was performed at the 48th hour to label microglia marker Iba1, nuclear dye DAPI and fluorescent spheres GFP, respectively, and then images were collected by laser confocal fluorescence microscopy.

Down's model mice Ts65Dn [5] = test: Synapse number by transmission electron microscopy; assay type: in vivo; conditions: 50 mg/(kg body weight/day) i.p., 21 days
Description: (A) A representative image of a transmission electron micrograph. Arrows indicate synaptic structures, and the scale is 1 m. (B) Statistics result of the number of synapses. (C) Statistics result of the number of presynaptic vesicles. (D) statistical result of the length of postsynaptic density (PSD). (E) Statistical results of the area of postsynaptic density (PSD). Data represents the mean±standard error (SEM) and is statistically analyzed using One-way ANOVA, with 4 mice in each group, and 38-42 fields of view are statistically analyzed respectively. The ns represents no significant difference, i.e., p>0.05, * represents p<0.05.
[…] The pieces were fixed with pre-cooled, fresh 2.5% glutaraldehyde fixative at 4° C. for more than 4 hours. At the end of fixation, the pieces were washed with PBS for 15 min for three times, then dehydrated, sectioned and prepared, and finally the images are collected by transmission electron microscopy.

[6] = 50 mg/(kg body weight/day) i.p., 21 days, plasma
Down's model mice Dp16 [7] = test: Iba1/CD68 immunofluorescence of hippocampus (microglial phagocytic function), Dp16; assay type: in vivo; conditions: 30 mg/(kg body weight/day) intragastric, 21 days
Description: (A) A representative map of immunofluorescence labeled microglia marker Iba1 and lysosomal phagocytosis marker CD68 in the region of mice hippocampus, and the scale is 50 m. (B) The statistical results of the proportion of Iba1-positive and CD68-positive cells in the total Iba1-positive cells in the mice hippocampus. Data represents the mean±standard error (SEM) and is statistically analyzed using One-way ANOVA, with 8 mice in each group. The ns represents no significant difference, i.e., p>0.05, *** represents p<0.001, **** represents p<0.0001.
The microglia marker Iba1 and lysosomal phagocytosis markers CD68 were respectively labeled by immunofluorescence staining, and then the images were collected by laser confocal fluorescence microscopy.

Down's model mice Dp16 [8] = test: Morris water maze test, Dp16; assay type: in vivo; conditions: 30 mg/(kg body weight/day) intragastric, 21 days
Description: (§5) After 21 days of continuous administration, 3-month-old male mice were subjected to the Morris water maze test. (A) The latency for the mice to reach the platform during the 6-day water maze hidden platform training. (B) The average speed of swimming for the mice in the water maze of the platform test on day 7. (C) The latency for the mice to reach the area where the platform is located for the first time in the platform test on day 7. (D) The number of times for which the mice shuttled in the area where the platform is located in the platform test on day 7. (E) The swimming trajectory for the mice in the platform test on day 7. […] The ns represents no significant difference, i.e., p>0.05, * represents p<0.05, ** represents p<0.01, *** represents p<0.001.
After continuous administration for 21 days, learning and memory related animal behavior test Morris water maze test was performed. Smart Video Tracking Software (Panlab, Harvard Apparatus) was used for data acquisition and analysis. The Morris water maze is a circular water tank with a diameter of 90 cm, a height of 35 cm, and a water depth of 30 cm. The water temperature was maintained at 22° C. Different markers were placed in the visual field of mice (pool wall), and four water entry points (E, S, W, N) were marked on the pool wall so that the maze was divided into four quadrants. A platform with a diameter of 6 cm was installed in the ES quadrant, so that the water surface was 1 cm higher than the platform. Mice were trained twice a day and put into the water from E, S, W and N entry points facing the wall of the pool, respectively. The movement trajectory of the mice was captured by a camera, and the time from entering the water to climbing up the platform was recorded, that is, Escape latency. The system set a test time of 60 seconds, and the system automatically shut down after the mice climbed on the platform and stay for 10 seconds. […] The number of times of crossing in the original platform area (Target crossing) and the Latency of 1st entrance to target were recorded. […]

Down's model mice Ts65Dn [9] = test: LTP recording in brain slices (Schaffer collateral pathway CA3 to CA1); assay type: in vivo; conditions: 50 mg/(kg body weight/day) i.p., 21 days
Method: After 21 days of continuous administration, electrophysiological studies on brain slice were performed. After anesthesia, the mice were incubated in an ice-cooled artificial cerebrospinal fluid (ACSF) with oxygen. After slicing, the brain slices were incubated in ACSF saturated with oxygen at 32° C. for 1 H. The recording electrode was placed in the radiation layer of CA1 area of Schaffer collateral pathway, and the stimulating electrode was placed in CA3 area. Stimulation intensity was 30% of the maximum value of fEPSP. After the stable baseline of fEPSP was recorded for 20 mins, LTP was induced by high frequency stimulation (HFS) (2 strings of stimulation, each of which contained 100 stimulation pulses, and was separated by 30 seconds) and recorded for 60 mins.

Alzheimer's disease mice = conditions: by inhibiting the production of β-amyloid protein in the brain; cited from earlier work
[10] = system: primary microglia of Dp16 mice; test: Phagocytosis of myelin debris by primary microglia; assay type: cell-based; conditions: 0.6 mM, myelin debris added at 45 hours, staining at 48 hours
Description: as §3, with “myelin sheath debris (pHrodo is pre-labeled on myelin sheath),” for “fluorescent spheres,”, “20” for “10”, “myelin sheath debris” for “fluorescent spheres”, “p<0.01, *** represents p<0.001,” for “p<0.01,”
as §4, with “Myelin debris (1.2 μg/L)” for “Fluorescent spheres (10000×, Fluoresbrite® microsphere)”, “45 hours,” for “the 45th hour,”, “48 hours” for “the 48th hour”, “myelin debris (pHrodo was labeled on the myelin sheath in advance),” for “fluorescent spheres GFP,”

Open-field test = assay type: in vivo, mice; conditions: 50 mg/(kg body weight/day) i.p., 21 days, open field 10 minutes
Method: After 21 days of continuous administration, 3-month-old male mice were subjected to the behavioral open-field test. (A) Average movement speed of mice in the open field. (B) Total movement distance of mice in the open field. (C) Total time for the mice moving in the center of the open field.
After continuous administration for 21 days, the animal behavior test was performed, in which the open-field test is a behavioral paradigm for evaluating the exercise ability and anxiety of experimental animals. In the open-field test, mice were placed in the center of the open field box (40 cm (L)×40 cm (W)×40 cm (H)), and Smart Video Tracking Software (Panlab, Harvard Apparatus) was used for data acquisition and analysis. Mice were allowed to explore freely in the open field for 10 minutes, and the Mean speed, Total distance and Time in center of mice were recorded.

[11] = Body weight after 21 days of administration; assay type: in vivo; conditions: WT and Ts65Dn mice, 50 mg/(kg body weight/day) i.p.
Method: All of the used mice were 3-month-old male mice administered continuously for 21 days, and then weighed.
The mice were administered continuously for 21 days and then weighed.

Down's model mice Ts65Dn [12] = test: Morris water maze test, Ts65Dn; assay type: in vivo; conditions: 50 mg/(kg body weight/day) i.p., 21 days
Description: as §5, with “p>0.05,” for “p>0.05, * represents p<0.05,”, “p<0.001, **** represents p<0.0001.” for “p<0.001.”
After continuous administration for 21 days, learning and memory related animal behavior test Morris water maze test was performed. Smart Video Tracking Software (Panlab, Harvard Apparatus) was used for data acquisition and analysis. The Morris water maze is a circular water tank with a diameter of 90 cm, a height of 35 cm, and a water depth of 30 cm. The water temperature was maintained at 22° C. Different markers were placed in the visual field of mice (pool wall), and four water entry points (E, S, W, N) were marked on the pool wall so that the maze was divided into four quadrants. A platform with a diameter of 6 cm was installed in the ES quadrant, so that the water surface was 1 cm higher than the platform. Mice were trained twice a day and put into the water from E, S, W and N entry points facing the wall of the pool, respectively. The movement trajectory of the mice was captured by a camera, and the time from entering the water to climbing up the platform was recorded, that is, Escape latency. The system set a test time of 60 seconds, and the system automatically shut down after the mice climbed on the platform and stay for 10 seconds. […] The positioning navigation experiment last for 6 days, and on day 7, the platform was removed. Mice were placed on the opposite side of the platform to the wall of the pool, and the space exploration experiment was carried out. The number of times of crossing in the original platform area (Target crossing) and the Latency of 1st entrance to target were recorded.

**Q.** Which “binding to plasma proteins in blood” value ([1]; blood) does the source give for `CCCC(CCC)C(=O)O` [VPA, sodium valproate] here?
**A.** mostly combined with plasma proteins

**Q.** And the “absorption by oral administration” value ([1]; oral administration)?
**A.** absorbed rapidly and completely

**Q.** And the “number of microglia in the hippocampus (Iba1 positive cells)” value (Down's model mice Dp16 [2])?
**A.** significantly reduces

**Q.** And the “number of microglia in the hippocampus (Iba1 positive cells)” value (Down's model mice Ts65Dn [3])?
**A.** significantly reduces

**Q.** And the “phagocytic function of fluorescent spheres by primary microglia” value [4]?
**A.** significantly enhances

**Q.** What about the “number of synapses in the hippocampal neurons” value (Down's model mice Ts65Dn [5]) of the same molecule?
**A.** significantly increases

**Q.** What about the “toxic effects on mice (blood biochemical analysis)” value [6] of the same molecule?
**A.** no significant toxic effects

**Q.** What about the “phagocytic function of hippocampal microglial cells (Iba1-positive and CD68-positive cells)” value (Down's model mice Dp16 [7]) of the same molecule?
**A.** significantly enhances

**Q.** And the “Latency of 1st entrance to target, day 7” value (Down's model mice Dp16 [8])?
**A.** reduces

**Q.** What about the “number of times the mouse shuttled the area where the platform was located, day 7” value (Down's model mice Dp16 [8]) of the same molecule?
**A.** significantly increases

**Q.** What about the “spatial learning and memory deficits” value (Down's model mice Dp16 [8]) of the same molecule?
**A.** significantly reverse

**Q.** And the “Long term potentiation (LTP) of Schaffer collateral pathway from hippocampal CA3 to CA1” value (Down's model mice Ts65Dn [9])?
**A.** significantly enhances

**Q.** What about the “cognitive function of Alzheimer's disease mice” value (Alzheimer's disease mice) of the same molecule?
**A.** reverse the cognitive function

**Q.** And the “phagocytic function of myelin debris by primary microglia” value [10]?
**A.** significantly enhances

**Q.** What about the “anxiety-related behaviors (Time in center)” value (Open-field test) of the same molecule?
**A.** do not show anxiety-related behaviors

**Q.** And the “locomotor ability (Mean speed, Total distance)” value (Open-field test)?
**A.** no significant effects

**Q.** What about the “body weight of mice” value [11] of the same molecule?
**A.** does not affect

**Q.** What about the “Latency of 1st entrance to target, day 7” value (Down's model mice Ts65Dn [12]) of the same molecule?
**A.** reduces

**Q.** And the “latency to search the platform (Escape latency), first 6 days of training” value (Down's model mice Ts65Dn [12])?
**A.** significantly reduce

**Q.** And the “number of times the mouse shuttled the area where the platform was located (Target crossing), day 7” value (Down's model mice Ts65Dn [12])?
**A.** significantly increases

**Q.** And the “spatial learning and memory deficits” value (Down's model mice Ts65Dn [12])?
**A.** significantly reverse
